Results published in patent US20170355959A1, “METHODS FOR MOBILISING POPULATIONS OF STEM CELLS” (Imperial Innovations Limited, priority 2014, published 2017).

How the values were obtained:
Assay type in all cases: in vivo, mice
free fatty acids = assay: Free fatty acid assay in blood plasma; details: treatment over 4 days
Procedure: Mice were administered the β-adrenergic agonists isoproterenol (10 mg/kg i.p.), clenbuterol (5 mg/kg i.p.) and BRL 37344 (10 mg/kg i.p.), the cannabinoid receptor agonists ACEA (10 mg/kg i.p.) and GP1a (5 mg/kg i.p.), or vehicle either on 4 consecutive days or 2 hours prior to the cull. 1 hour after the last injection, mice were administered the CXCR4 antagonist AMD3100 (5 mg/kg i.p.) or vehicle. 1 hour later their blood was collected via cardiac puncture for enumeration of circulating CFU-HPCs and CFU-Fs. Mice were administered murine G-CSF (100 μg/kg i.p.) or vehicle on 4 consecutive days. On day 5, blood was collected via cardiac puncture for enumeration of circulating HSPCs.
Free fatty acid content in blood plasma was quantified using a serum/plasma fatty acid detection Kit (Zen Bio) and the assay was performed according to the manufacturers' instructions. Data are expressed as μM concentration of free fatty acids.

HPCs = assay: In situ perfusion of mouse hind limb, CFU-HPCs in perfusate; details: four day pretreatment, b3 adrenergic agonist in combination with FAAH inhibitor
Procedure: Mice were administered BRL 37344 (10 mg/kg i.p.) or vehicle on 4 consecutive days. 1 hour after the last injection, the mice were anaesthetized. The femoral vein and artery were exposed and cannulated in situ immediately after the hind limb was isolated by occlusion of the surrounding arteries as previously described (Pitchford et al, 2009; Pitchford et al, 2010). Perfusion buffer was infused via the arterial cannula and removed from the venous cannula using a Minipuls Peristaltic Pump (Anachem). The hind limb was initially infused with AMD3100 (0.1 mM) or vehicle for 10 minutes using an infusion/withdrawal pump (Harvard Instruments) and was further perfused for 50 minutes with perfusion buffer (Pitchford et al, 2010). The perfusate was collected over 60 minutes and then centrifuged and resuspended in DMEM (Gibco) +20% fetal bovine serum for enumeration of CFU-HPCs and CFU-Fs.
Harvested peripheral blood or perfusate was red blood cell-lysed and 1×10^5 cells were added to tissue culture-treated petri dishes containing 1 ml of Methocult™ (M3434; StemCell Technologies) to select for CFU-HPCs. Cultures were incubated at 37° C. and quantified on day 12. Similarly, 1×10^6 bone marrow cells harvested by bone marrow flush of the hind limb femur were plated for CFU-HPCs.

CXCL12 = CXCL12 ELISA of bone marrow supernatant; details: 4 days of treatment, bone marrow 2 hours after final injection
Procedure: (A) Mice were pretreated with BRL 37344 (β3), G-CSF or vehicle (VEH) once daily on 4 consecutive days. 2 hours after the final BRL 37344 injection or 24 hours after the final G-CSF injection, bone marrow was collected for quantification of CXCL12 levels (n=16 and n=6-8, respectively). (B) Bone marrow cells were collected from naïve mice and were treated in vitro with clenbuterol (β2), BRL 37344 (β3) or vehicle (VEH). CFU-Fs per 10^6 cells are shown (n=6 mice per group). (C) Mice were pre-treated with AM 251, AM 630, BRL 37344 (β3) or vehicle (VEH) once daily on 4 consecutive days. 2 hours after the last injection, bone marrow cells were collected for enumeration of CFU-Fs. CFU-Fs per 10^6 cells are shown (n=6-8 mice per group). (D) CB1 receptor antagonist AM 251 (CB1l, CB2 receptor antagonist AM 630 (CB2l, BRL 37344 (β3) or vehicle. Data represented as mean±SEM. (A) **p<0.01 (unpaired student t-test) and (B-D) *p<0.05, **p<0.01, ***p<0.001 (one-way ANOVA).
CXCL12 content in blood plasma and bone marrow supernatant was quantified using CXCL12 capture (MAB350) and detection (BAF351) antibodies (RnD systems), and the assay was performed according to the manufacturers' instructions. Recombinant mouse CXCL12 (RnD systems) was used to generate a standard curve.

Q: How did the “FFA levels in plasma” value (free fatty acids) turn out when `C[C@H](Cc1ccc(OCC(=O)O)cc1)NC[C@H](O)c1cccc(Cl)c1` [BRL37344] was run?
A: Its value is “an increase”.

Q: What about the “HPC egress from the bone marrow in response to infusion of the CXCR4 antagonist” value (HPCs) of the same compound?
A: The value was “significantly enhanced both HPC and MSC egress from the bone marrow”.

Q: And the “levels of CXCL12 in the bone marrow” value (CXCL12)?
A: Its value is “had no effect on levels of CXCL12 in the bone marrow”.
